Measurements from patent publication US20260109707A1, “HETEROBIFUNCTIONAL COMPOUNDS AND METHODS OF TREATING DISEASE” (Halda Therapeutics OpCo. Inc., priority 2022, published 2026).
Like-named read-outs stand apart in the source and are kept apart here.

Columns and labels:
[1] = system: VCaP cells; experiment: Cellular growth inhibition assay for VCaP cells (CellTiter-Glo, 72 hours); assay type: cell-based, human
In short: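 Luminescent viability signal after 72 h of compound exposure gave GI50 values by four-parameter nonlinear regression. Compounds were added in 0.5% DMSO to cells plated 24 h earlier at 5000/well in DMEM containing 10% FBS.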

[2] = system: T-Rex 293 cell line SC3 cells having increased expression of androgen receptor protein due to exposure to doxycycline; experiment: Cellular growth inhibition assay, T-Rex 293 SC3 cells with doxycycline (CellTiter-Glo, 72 hours); assay type: cell-based; conditions: T-Rex 293 SC3 cells with increased androgen receptor expression due to doxycycline (10 ng/mL)
In short: (§1)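 Growth inhibition is measured in an inducible AR-expressing T-Rex 293 clone, SC3, cultured with or without 10 ng/mL doxycycline in hormone-depleted medium. Test compounds are applied for 72 hours. GI50 values derive from CellTiter-Glo 2.0 signal fitted by four-parameter regression.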

[3] = system: T-Rex 293 cell line SC3 cells lacking increased expression of androgen receptor protein; experiment: Cellular growth inhibition assay, T-Rex 293 SC3 cells without doxycycline (CellTiter-Glo, 72 hours); assay type: cell-based; conditions: T-Rex 293 cell line SC3 cells not exposed to doxycycline (lacking increased androgen receptor expression)
In short: as §1

Row | Structure (SMILES) | GI50 [1] [nM] | GI50 [2] [nM] | GI50 [3] [nM] | GI50 ([1]; Homo sapiens, VCaP, 72 h) [nM] | GI50 ([2]; 72 h) [nM] | GI50 ([3]; 72 h) [nM]
1 | Cc1sc2c(c1C)C(c1ccc(CC3CC4(CCN(c5ccc(C(=O)N[C@H]6CC[C@H](Oc7ccc(C#N)c(Cl)c7)CC6)nn5)CC4)C3)cc1)=NC(C(F)(F)F)c1nnc(C)n1-2 (stereo partly drawn) [I-729] | < 500 | < 500 | > 3000 | – | – | –
2 | Cc1sc2c(c1C)C(c1ccc(N3C4CCCC3CC3(CCN(c5ccc(C(=O)N[C@H]6CC[C@H](Oc7ccc(C#N)c(Cl)c7)CC6)nn5)C3)C4)cc1)=N[C@@H](C)c1nnc(C)n1-2 (stereo partly drawn) [I-730] | – | < 500 | > 3000 | < 500 | – | –
3 | Cc1sc2c(c1C)C(c1ccc(N3CCC4(CCN(c5ccc(C(=O)N[C@H]6CC[C@H](Oc7ccc(C#N)c(Cl)c7)CC6)nn5)C4)C3)c(F)c1)=N[C@@H](C)c1nnc(C)n1-2 (stereo partly drawn) [I-731] | 500 to 1500 | – | – | – | < 500 | < 500
4 | Cc1sc2c(c1C)C(c1ccc(N3CCC4(CCN(c5ccc(C(=O)N[C@H]6CC[C@H](Oc7ccc(C#N)c(Cl)c7)CC6)nn5)C4)C3)cc1F)=N[C@@H](C)c1nnc(C)n1-2 (stereo partly drawn) [I-732] | < 500 | – | – | – | < 500 | < 500
5 | Cc1sc2c(c1C)C(c1ccc(OC3CCC4(CCN(c5ccc(C(=O)N[C@H]6CC[C@H](Oc7ccc(C#N)c(Cl)c7)CC6)nn5)C4)C3)cc1)=N[C@@H](C)c1nnc(C)n1-2 (stereo partly drawn) [I-733] | < 500 | – | – | – | < 500 | < 500
6 | Cc1sc2c(c1C)C(c1ccc(OC3CCC4(CCN(c5ccc(C(=O)N[C@H]6CC[C@H](Oc7ccc(C#N)c(Cl)c7)CC6)nn5)C4)C3)cc1)=N[C@@H](C)c1nnc(C)n1-2 (stereo partly drawn) [I-734] | < 500 | < 500 | < 500 | – | – | –
7 | Cc1sc2c(c1C)C(c1ccc(N3CCC4(CCN(c5ccc(C(=O)N[C@H]6CC[C@H](Oc7ccc(C#N)c(Cl)c7)CC6)nn5)C4)CC3)c(F)c1)=N[C@@H](C)c1nnc(C)n1-2 [I-735] | < 500 | < 500 | < 500 | – | – | –
8 | Cc1sc2c(c1C)C(c1ccccc1N1CCC3(CCCN(c4ccc(C(=O)N[C@H]5CC[C@H](Oc6ccc(C#N)c(Cl)c6)CC5)nn4)C3)CC1)=N[C@@H](C)c1nnc(C)n1-2 [I-737] | – | – | – | 500 to 1500 | < 500 | < 500
9 | Cc1sc2c(c1C)C(c1ccc(C3CCC4(CCN(c5ccc(C(=O)N[C@H]6CC[C@H](Oc7ccc(C#N)c(Cl)c7)CC6)nn5)CC4)C3)nc1)=NC1(CC1)c1nnc(C)n1-2 (stereo partly drawn) [I-738] | < 500 | < 500 | > 3000 | – | – | –
10 | Cc1sc2c(c1C)C(c1ccc(C3CCC4(CCN(c5ccc(C(=O)N[C@H]6CC[C@H](Oc7ccc(C#N)c(Cl)c7)CC6)nn5)CC4)C3)nc1)=NC1(CC1)c1nnc(C)n1-2 (stereo partly drawn) [I-739] | < 500 | < 500 | 500 to 1500 | – | – | –
11 | Cc1sc2c(c1C)C(c1ccc(C#CC3CC4(C3)CN(c3ccc(C(=O)N[C@H]5CC[C@H](Oc6ccc(C#N)c(Cl)c6)CC5)nn3)C4)cc1)=NC(C(F)(F)F)c1nnc(C)n1-2 (stereo partly drawn) [I-741] | < 500 | < 500 | – | – | – | > 3000
12 | Cc1sc2c(c1C)C(c1ccc(C3CCC4(CC3)CCN(c3ccc(C(=O)N[C@H]5CC[C@H](Oc6ccc(C#N)c(Cl)c6)CC5)nn3)CC4)nc1)=N[C@@H](C)c1nnc(C)n1-2 [I-744] | < 500 | < 500 | 500 to 1500 | – | – | –
13 | Cc1sc2c(c1C)C(c1ccc(N3CCC4(CCN(c5ccc(C(=O)N[C@H]6CC[C@H](Oc7ccc(C#N)c(Cl)c7)CC6)nn5)C4)C3)c(F)c1)=N[C@@H](C)c1nnc(C)n1-2 (stereo partly drawn) [I-745] | – | < 500 | < 500 | < 500 | – | –
14 | Cc1sc2c(c1C)C(c1ccc(N3CCC4(CCN(c5ccc(C(=O)N[C@H]6CC[C@H](Oc7ccc(C#N)c(Cl)c7)CC6)nn5)C4)C3)cc1F)=N[C@@H](C)c1nnc(C)n1-2 (stereo partly drawn) [I-746] | – | < 500 | 500 to 1500 | < 500 | – | –
15 | Cc1sc2c(c1C)C(c1cccc(OC3CCC4(CC3)CCN(c3ccc(C(=O)N[C@H]5CC[C@H](Oc6ccc(C#N)c(Cl)c6)CC5)nn3)C4)c1)=N[C@@H](C)c1nnc(C)n1-2 (stereo partly drawn) [I-747] | < 500 | – | < 500 | – | < 500 | –
16 | Cc1sc2c(c1C)C(c1cccc(OC3CCC4(CCN(c5ccc(C(=O)N[C@H]6CC[C@H](Oc7ccc(C#N)c(Cl)c7)CC6)nn5)C4)C3)c1)=N[C@@H](C)c1nnc(C)n1-2 (stereo partly drawn) [I-748] | – | – | – | < 500 | < 500 | < 500

Row | Structure (SMILES) | GI50 [1] [nM] | GI50 [2] [nM] | GI50 [3] [nM] | GI50 ([1]; Homo sapiens, VCaP, 72 h) [nM] | GI50 ([2]; 72 h) [nM] | GI50 ([3]; 72 h) [nM]
17 | Cc1sc2c(c1C)C(c1cccc(OC3CCC4(CCN(c5ccc(C(=O)N[C@H]6CC[C@H](Oc7ccc(C#N)c(Cl)c7)CC6)nn5)C4)C3)c1)=N[C@@H](C)c1nnc(C)n1-2 (stereo partly drawn) [I-749] | < 500 | < 500 | 500 to 1500 | – | – | –
18 | Cc1sc2c(c1C)C(c1cccc(OC3CCC4(CCN(c5ccc(C(=O)N[C@H]6CC[C@H](Oc7ccc(C#N)c(Cl)c7)CC6)nn5)C4)C3)c1)=N[C@@H](C)c1nnc(C)n1-2 (stereo partly drawn) [I-750] | < 500 | < 500 | < 500 | – | – | –
19 | Cc1sc2c(c1C)C(c1ccccc1N1CC3(CCN(c4ccc(C(=O)N[C@H]5CC[C@H](Oc6ccc(C#N)c(Cl)c6)CC5)nn4)CC3)C1)=N[C@@H](C)c1nnc(C)n1-2 [I-751] | – | – | – | < 500 | < 500 | < 500
20 | Cc1sc2c(c1C)C(c1ccccc1OC1CCC3(CC1)CCN(c1ccc(C(=O)N[C@H]4CC[C@H](Oc5ccc(C#N)c(Cl)c5)CC4)nn1)C3)=N[C@@H](C)c1nnc(C)n1-2 (stereo partly drawn) [I-752] | – | – | – | < 500 | < 500 | < 500
21 | Cc1sc2c(c1C)C(c1ccccc1OC1CCC3(CC1)CCN(c1ccc(C(=O)N[C@H]4CC[C@H](Oc5ccc(C#N)c(Cl)c5)CC4)nn1)C3)=N[C@@H](C)c1nnc(C)n1-2 (stereo partly drawn) [I-753] | < 500 | < 500 | < 500 | – | – | –
22 | Cc1sc2c(c1C)C(c1ccccc1CC1CC3(CCCN(c4ccc(C(=O)N[C@H]5CC[C@H](Oc6ccc(C#N)c(Cl)c6)CC5)nn4)C3)C1)=N[C@@H](C)c1nnc(C)n1-2 (stereo partly drawn) [I-754] | – | – | – | > 3000 | > 3000 | > 3000
23 | Cc1sc2c(c1C)C(c1ccccc1CC1CC3(CCCN(c4ccc(C(=O)N[C@H]5CC[C@H](Oc6ccc(C#N)c(Cl)c6)CC5)nn4)C3)C1)=N[C@@H](C)c1nnc(C)n1-2 (stereo partly drawn) [I-755] | 1500 to 3000 | > 3000 | > 3000 | – | – | –
24 | Cc1sc2c(c1C)C(c1ccc(C3CCC(CC4CCN(c5ccc(C(=O)N[C@H]6CC[C@H](Oc7ccc(C#N)c(Cl)c7)CC6)nn5)CC4)CC3)cc1)=NC1(CC1)c1nnc(C)n1-2 (stereo partly drawn) [I-756] | – | – | > 3000 | < 500 | < 500 | –
25 | Cc1sc2c(c1C)C(c1ccc(C3CCC(CC4CCN(c5ccc(C(=O)N[C@H]6CC[C@H](Oc7ccc(C#N)c(Cl)c7)CC6)nn5)CC4)CC3)cc1)=NC1(CC1)c1nnc(C)n1-2 (stereo partly drawn) [I-757] | < 500 | < 500 | < 500 | – | – | –
26 | Cc1sc2c(c1C)C(c1ccc(C3CCC4(CCN(c5ccc(C(=O)N[C@H]6CC[C@H](Oc7ccc(C#N)c(Cl)c7)CC6)nn5)CC4)C3)cc1)=NC(C(F)(F)F)c1nnc(C)n1-2 (stereo partly drawn) [I-758] | > 3000 | > 3000 | > 3000 | – | – | –
27 | Cc1sc2c(c1C)C(c1ccc(C3CCC4(CCN(c5ccc(C(=O)N[C@H]6CC[C@H](Oc7ccc(C#N)c(Cl)c7)CC6)nn5)CC4)C3)cc1)=NC(C(F)(F)F)c1nnc(C)n1-2 (stereo partly drawn) [I-759] | – | > 3000 | – | < 500 | – | > 3000
28 | Cc1sc2c(c1C)C(c1ccc(C3CCC4(CCN(c5ccc(C(=O)N[C@H]6CC[C@H](Oc7ccc(C#N)c(Cl)c7)CC6)nn5)CC4)C3)cc1)=NC(C(F)(F)F)c1nnc(C)n1-2 (stereo partly drawn) [I-760] | < 500 | < 500 | > 3000 | – | – | –
29 | Cc1sc2c(c1C)C(c1ccc(C3CCC4(CCN(c5ccc(C(=O)N[C@H]6CC[C@H](Oc7ccc(C#N)c(Cl)c7)CC6)nn5)CC4)C3)cc1)=NC(C(F)(F)F)c1nnc(C)n1-2 (stereo partly drawn) [I-761] | < 500 | > 3000 | > 3000 | – | – | –
30 | Cc1sc2c(c1C)C(c1ccc(C3CCC(CC4CCN(c5ccc(C(=O)N[C@H]6CC[C@H](Oc7ccc(C#N)c(Cl)c7)CC6)nn5)CC4)CC3)cc1)=N[C@@H](C)c1nnc(C)n1-2 (stereo partly drawn) [I-764] | – | – | – | < 500 | < 500 | > 3000
31 | Cc1sc2c(c1C)C(c1ccc(C3CCC(CC4CCN(c5ccc(C(=O)N[C@H]6CC[C@H](Oc7ccc(C#N)c(Cl)c7)CC6)nn5)CC4)CC3)cc1)=N[C@@H](C)c1nnc(C)n1-2 (stereo partly drawn) [I-765] | < 500 | < 500 | > 3000 | – | – | –
